According to patent US5658885A, “Amidino and guanidino substituted boronic acid inhibitors of trypsin-like enzymes” (The DuPont Merck Pharmaceutical Company, priority 1994, dated 1997):
Counter-ions that a name gives are not always drawn.

What was measured:
human factor VIIa = biological target: T1, human factor VIIa (Homo sapiens, UniProt P08709); experiment: Inhibition of Factor VIIa hydrolysis of chromogenic substrate S2288 (Ki); assay type: biochemical; settings: S2288, pH 7.6
T1 construct: 50 nM human factor VIIa (BiosPacific, Emeryville, Calif.); purchased BiosPacific, Emeryville, Calif
T1 sequence (P08709 213-466 limits assumed): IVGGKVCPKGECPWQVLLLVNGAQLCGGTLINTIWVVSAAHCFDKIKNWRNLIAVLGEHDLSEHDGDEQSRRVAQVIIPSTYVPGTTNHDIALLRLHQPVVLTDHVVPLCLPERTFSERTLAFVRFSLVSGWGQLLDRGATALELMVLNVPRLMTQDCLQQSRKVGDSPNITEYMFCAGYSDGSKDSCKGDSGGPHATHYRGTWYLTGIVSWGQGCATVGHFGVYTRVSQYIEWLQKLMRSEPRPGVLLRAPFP
T1 sequence (P08709 61-212 limits assumed): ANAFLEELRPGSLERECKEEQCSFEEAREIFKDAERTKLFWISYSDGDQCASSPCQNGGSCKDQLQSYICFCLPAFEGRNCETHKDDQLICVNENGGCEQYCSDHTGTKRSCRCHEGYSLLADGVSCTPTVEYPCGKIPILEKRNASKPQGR
Procedure: (§1) The effectiveness of compounds of the present invention as inhibitors of blood coagulation proteases was determined using purified human proteases and synthetic substrates following procedures similar to those described in Kettner et al. (1990).
(§2) For these assays, the rate of enzymatic (thrombin, Factor Xa, and Factor VIIa) hydrolysis of chromogenic substrates (S2238 (H-D-Phe-Pip-Arg-pNA), S2222, and S2288, respectively; Kabi Pharmacia, Franklin, Ohio) was measured both in the absence and presence of compounds of the present invention. […] A decrease in the rate of absorbance change at 405 nm in the presence of inhibitor is indicative of enzyme inhibition. The results of this assay are expressed as inhibitory constant, Ki.
(§3) Thrombin and Xa determinations were made in 0.10M sodium phosphate buffer, pH 7.5, containing 0.20M NaCl, and 0.5% PEG 8000. VIIa determinations were made in 0.05M tris buffer, pH 7.6, containing 0.10M NaCl, 4 mM CaCl2, and 0.1% bovine serum albumin.
(§4) Reactions were allowed to go for 30 minutes and the velocities (rate of absorbance change vs time) were measured in the time frame of 25-30 minutes. The following relationship was used to calculate Ki values. [formula] where: vo is the velocity of the control in the absence of inhibitor;
(§5) vs is the velocity in the presence of inhibitor;
(§6) I is the concentration of inhibitor;
(§7) Ki is the dissociation constant of the enzyme: inhibitor complex;
(§8) S is the concentration of substrate;
(§9) Km is the Michaelis constant.

human factor Xa = biological target: T2, human factor Xa (Homo sapiens, UniProt P00742); experiment: Inhibition of Factor Xa hydrolysis of chromogenic substrate S2222 (Ki); assay type: biochemical; settings: S2222, pH 7.5
T2 construct: 0.2-0.5 nM human thrombin or human factor Xa; purchased Enzyme Research Laboratories, South Bend, Ind
Procedure: as §1, §2, §3, §4, §5, §6, §7, §8, §9

human thrombin = biological target: T3, human thrombin (Homo sapiens, UniProt P00734); experiment: Inhibition of thrombin hydrolysis of chromogenic substrate S2238 (Ki); assay type: biochemical; settings: S2238, pH 7.5
T3 construct: 0.2-0.5 nM human thrombin or human factor Xa; purchased Enzyme Research Laboratories, South Bend, Ind
Procedure: as §1, §2, §3, §4, §5, §6, §7, §8, §9

[1] = test system: activated partial thromboplastin time; experiment: Anticoagulant effect in vivo: prolongation of activated partial thromboplastin time of blood samples after dosing; design: species or system conscious dogs or anesthetized rats; settings: 0.5 to 10 mg/kg, dogs or rats
Procedure: Arterial or venous blood was withdrawn by syringe and mixed with 1/10 volume 3.2% sodium citrate. Plasma was obtained after centrifugation and a standard clinical activated partial thromboplastin time (APTT reagent, Sigma Chemical Co., St. Louis, Mo.) determined at 37° C. in a fibrometer.

thrombin clotting times = experiment: Thrombin clotting time, concentration for 2-fold increase; assay type: biochemical; settings: 2-fold increase of thrombin clotting time

T2 sequence (P00742 235-488 limits assumed): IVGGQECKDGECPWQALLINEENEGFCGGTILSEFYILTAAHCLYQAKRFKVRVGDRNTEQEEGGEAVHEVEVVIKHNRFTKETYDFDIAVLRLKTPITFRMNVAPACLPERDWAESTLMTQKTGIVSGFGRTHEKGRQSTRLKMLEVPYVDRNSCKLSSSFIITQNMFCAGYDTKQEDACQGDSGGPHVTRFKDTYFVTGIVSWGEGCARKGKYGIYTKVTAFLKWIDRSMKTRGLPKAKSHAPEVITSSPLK
T2 sequence (P00742 41-179 limits assumed): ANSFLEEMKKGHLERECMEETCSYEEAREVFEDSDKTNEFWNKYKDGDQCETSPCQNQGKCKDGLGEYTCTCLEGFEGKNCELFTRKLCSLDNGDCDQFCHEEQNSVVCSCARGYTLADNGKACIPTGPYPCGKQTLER

Row | Compound | Ki (human factor VIIa) [nM] | Ki (human factor Xa) [nM] | Ki (human thrombin) [nM] | anticoagulant response (at least doubling of activated partial thromboplastin time vs. pre-dose) ([1]; i.v. dosing) | anticoagulant response (at least doubling of activated partial thromboplastin time vs. pre-dose) ([1]; oral dosing) | concentration that increased thrombin clotting times 2-fold (thrombin clotting times) [µM]
1 | Boc--(D)Phe--Pro--boroGly[(CH2)3 --ONH2 ]--OH.HCl [Example 102] | < 500 | < 50000 | < 500 | – | – | –
2 | CC(C)(C)OC(=O)N[C@H](Cc1ccccn1)C(=O)N1CCCC1C(=O)NC(Cc1cccc(C#N)c1)B1OC2CC3CC(C3(C)C)C2(C)O1 (stereo partly shown) [Example 34, Boc--(D)2-Pyridylalanine-Pro--boroPhe(m-CN)--C10 H16] | < 500 | < 500 | < 500 | – | – | –
3 | CC1(C)C2CC3OB(C(Cc4cccc(C#N)c4)NC(=O)[C@@H]4CCCN4C(=O)[C@H](N)Cc4ccccn4)OC3(C)C1C2 (stereo partly shown) [Example 37, H--(D)2-Pyridylalanine-Pro--boroPhe(m-CN)--C10 H16.HCl] | < 500 | < 50000 | < 500 | – | – | –
4 | CN(C)C(Cc1ccccc1)C(=O)N1CCCC1C(=O)NC(Cc1cccc(C#N)c1)B(O)O (single isomer, unassigned; isomer i) [Example 20, N,N-(CH3)2 --(D)Phe--Pro--boroPhe--(m-CN)--OH.HCl (ISOMER I)] | – | < 500 | < 500 | – | – | –
5 | CS(=O)(=O)N[C@H](Cc1ccccc1)C(=O)N1CCC[C@H]1C(=O)N[C@@H](CCCNC=N)B(O)O.Cl [Example 57, Ms--(D)Phe--Pro--boroOrn(CH=NH)--OH.HCl] | – | – | < 500 | effective | effective | –
6 | N=CNCCCC(NC(=O)C1CCCN1C(=O)CCc1ccccc1)B(O)O (stereo not shown) [Example 48] | < 500 | < 50000 | < 500 | – | – | –
7 | CC(=O)N[C@H](Cc1ccccc1)C(=O)N1CCC[C@H]1C(=O)N[C@@H](Cc1cccc(C#N)c1)B(O)O [Example 23, Ac--(D)Phe--Pro--boroPhe--(m-CN)--OH.HCl] | < 500 | < 50000 | < 500 | – | – | –
8 | CC(=O)NC(Cc1ccccc1)C(=O)N1CCCC1C(=O)NC(Cc1cccc(C(=N)N)c1)B1OC2CC3CC(C3(C)C)C2(C)O1.O=S(=O)(O)c1ccccc1 (stereo not shown) [Example 12, Ac--(D)Phe--Pro--boroPhe--(m-C(NH)NH2)--C10 H16.BSA] | – | – | < 500 | – | – | 0.85
9 | CC(=O)NCCCCC(NC(=O)C1CCCN1C(=O)CCc1ccccc1)B1OC2CC3CC(C3(C)C)C2(C)O1 (stereo not shown) [Example 136, Hydrocinnamoyl-ProboroGly[(CH2)4 --NH--Acetyl]C10 H16] | < 50000 | < 50000 | < 500 | – | – | –
10 | CC(=O)NC(Cc1ccccc1)C(=O)N1CCCC1C(=O)NC(CCCNC=N)B1OC2CC3CC(C3(C)C)C2(C)O1.Cl (stereo not shown) [Example 3, Ac--(D)Phe--Pro--boroOrn(CH=NH)]--C10 H16.HCl] | – | – | < 500 | – | – | 0.25
11 | CNC(Cc1ccccc1)C(=O)N1CCCC1C(=O)NC(Cc1cccc(C#N)c1)B1OC2CC3CC(C3(C)C)C2(C)O1 (stereo not shown) [Example 25, N--CH3 --(D)Phe--Pro--boroPhe(m-CN)--C10 H16.HCl] | – | < 500 | < 500 | – | – | –
12 | Ac--(D)Phe--Pro--boroOrn(CH=NH)]--OH.HCl [Example 4] | < 500 | < 500 | < 500 | effective | effective | –
13 | CC(=O)N[C@H](Cc1ccccc1)C(=O)N1CCCC1C(=O)NC(CC1CCC(N)CC1)B1OC2CC3CC(C3(C)C)C2(C)O1 (stereo partly shown) [Example 124] | – | < 50000 | < 500 | – | – | –
14 | CC1(C)C2CC3OB(C(Cc4cccc(C#N)c4)NC(=O)[C@@H]4CCCN4C(=O)[C@@H](Cc4ccccn4)NS(C)(=O)=O)OC3(C)C1C2 (stereo partly shown) [Example 39, Ms--(D)2-Pyridylalanine-Pro--boroPhe(m-CN)--C10 H16] | < 500 | < 500 | < 500 | – | – | –
15 | CC(C)(C)OC(=O)N[C@H](Cc1cccnc1)C(=O)N1CCCC1C(=O)NC(Cc1cccc(C#N)c1)B1OC2CC3CC(C3(C)C)C2(C)O1 (stereo partly shown) [Example 28, Boc--(D)3-Pyridylalanine-Pro--boroPhe--(m-CN)-C10 H16] | – | < 500 | < 500 | – | – | –
16 | CC1(C)C2CC3OB(C(Cc4cccc(C#N)c4)NC(=O)[C@@H]4CCCN4C(=O)[C@H](N)Cc4cccs4)OC3(C)C1C2 (stereo partly shown) [Example 38, H--(D)2-Thienylalanine-Pro--boroPhe(m-CN)--C10 H16.HCl] | < 500 | < 50000 | < 500 | – | – | –
17 | CS(=O)(=O)N[C@H](Cc1ccc(F)cc1)C(=O)N1CCC[C@H]1C(=O)N[C@@H](CCCNC=N)B(O)O.Cl [Example 60, Ms--(D)Phe(4-fluoro)-Pro--boroOrn(CH=NH)--OH.HCl] | – | – | < 500 | – | effective | –
18 | Boc--(D)Thiazolylalanine-Pro--boroPhe(m-CN)--C10 H16 [Example 27] | – | < 500 | < 500 | – | – | –
19 | CC1(C)C2CC3OB(C(CCCNC(N)=O)NC(=O)C4CCCN4C(=O)C(Cc4ccccc4)NS(=O)(=O)Cc4ccccc4)OC3(C)C1C2 (stereo not shown) [Example 110, PhCH2 SO2 --(D)Phe--Pro--boroOrn(CONH2)--C10 H16] | – | < 50000 | < 500 | – | – | –
20 | CC1(C)C2CC3OB(C(Cc4cccc(C#N)c4)NC(=O)C4CCCN4C(=O)[C@@H](Cc4cccnc4)NS(C)(=O)=O)OC3(C)C1C2 (stereo partly shown) [Example 32, Ms--(D)3-Pyridylalanine-Pro--boroPhe(m-CN)--C10 H16] | – | < 500 | < 500 | – | – | –
21 | Ms--(D)Phe--Pro--boroPhe(m-CN)--OH.HCl [Example 24] | – | < 500 | < 500 | – | – | –
22 | COCCCC(NC(=O)C1CCCN1C(=O)C(Cc1ccccc1)NCC(=O)O)B1OC2CC3CC(C3(C)C)C2(C)O1 (stereo not shown) [Example 140, HO2 CCH2 --(D)--Phe--Pro--boroGly[(CH2)3 --OCH3]--C10 H16] | < 50000 | – | < 500 | – | – | –
23 | Cl.N=CNCCCC(NC(=O)C1CCCN1C(=O)C(Cc1ccccc1)NC(=O)OCc1ccccc1)B(O)O (stereo not shown) [Example 77, Z--(D)Phe--Pro--boroOrn(CH=NH)--OH.HCl] | – | – | – | effective | – | –
24 | Ms--(D)Phe--Pro--boroArg(CH3)--OH.HCl [Example 56] | – | – | < 500 | – | effective | –
25 | COCCCC(NC(=O)[C@@H]1CCCN1C(=O)[C@@H](Cc1ccccc1)N(C)C)B1OC2CC3CC(C3(C)C)C2(C)O1 (stereo partly shown) [Example 141, N,N-dimethyl-(D)--Phe--Pro--boroGly[(CH2)3 --OCH3]--C10 H16] | < 50000 | < 50000 | < 500 | – | – | –
26 | CC(C)(C)OC(=O)NC(Cc1cccs1)C(=O)N1CCCC1C(=O)NC(Cc1cccc(C#N)c1)B1OC2CC3CC(C3(C)C)C2(C)O1 (stereo not shown) [Example 36, Boc--(D)2-Thienylalanine-Pro--boroPhe(m-CN)--C10 H16] | < 500 | < 500 | < 500 | – | – | –
27 | CCCCS(=O)(=O)NC(Cc1ccccc1)C(=O)N1CCCC1C(=O)NC(CCCNC=N)B(O)O.Cl (stereo not shown) [Example 66, CH3 (CH2)3 SO2 --(D)Phe--Pro--boroOrn(CH=NH)--OH.HCl] | – | – | < 500 | – | effective | –
28 | CC1(C)C2CC3OB(C(Cc4cccc(C#N)c4)NC(=O)C4CCCN4C(=O)C(Cc4cccs4)NS(C)(=O)=O)OC3(C)C1C2 (stereo not shown) [Example 40, Ms--(D)2-Thienylalanine-Pro--boroPhe(m-CN)--C10 H16] | < 500 | < 500 | < 500 | – | – | –
